pIC50: −log10 of the molar value. Structures can show the parent of a compound that is named as a salt.
How the values were obtained:
Type in all cases: cell-based
[1] = system: KYSE 520; experiment: Inhibition of cell proliferation, KYSE 520 (CCK-8); settings: Homo sapiens, KYSE 520 cells, read-out: Inhibition activity on the proliferation of different cell lines KYSE 520 (IC50)
Description: (§1) (1) MV-411 cells were cultured in the cell culture medium, and then well-growing cells were selected and inoculated in a 96-well plate at 80 μL/well, with 2×10^4 cells/well. The plate was incubated overnight in a 5% CO2 cell incubator at 37° C.
(§2) (2) 10 mM storage solution of each drug was prepared using dimethylsulfoxide (DMSO). The stock solution was diluted in a ratio of 1:3 with DMSO before use, and then the solution was serially diluted in a ratio of 1:3, to obtain 9 gradient concentrations. Each concentration was further diluted with the medium in a ratio of 1:200 (to ensure that the DMSO concentration in the culture system was 0.1%). Two wells were set for each concentration. 20 μL of each compound solution was added to the cell culture well (with a final concentration of 10 μM, 3.3 μM, 1.1 μM . . . ). The plate was gently shaken and mixed. Additionally, 3 negative control wells (only containing cells) and 3 blank control wells (only containing the medium) were included (6 wells were each added with 20 μL of DMSO diluted with the medium in a ratio of 1:200).
(§3) (1) After 5 days of cultivation, 10 μL of CCK-8 was added to each well, and then the plate was further cultured for 3 h at 37° C. in a 5% CO2 cell incubator.
(§4) (2) The absorbance (OD value) was measured at 450 nm with a multifunctional microplate reader. (3) The data were analyzed using the Dose-response-inhibition equation in GraphPad Prism8 software to obtain the IC50 value.
(§5) Using a similar method, the IC50 value (nM) for the inhibitory activity of the compound according to the present invention against different cell lines was obtained, and the results are shown in Table 3 (++++: IC50>5 μM; +++: 1 μM<IC50<5 μM; ++: IC50<1 μM).

[2] = biological target: T1, SHP2 protein (Homo sapiens, UniProt Q06124); experiment: Degradation activity on SHP2 protein in MIA Paca-2 cells (Western blot, DC50); set-up: endogenous in cells; host or cells: MIA Paca-2 cells; settings: read-out: Degradation activity for differenct cell lines MIA Paca-2 (DC50)
T1 sequence (Q06124 1-593): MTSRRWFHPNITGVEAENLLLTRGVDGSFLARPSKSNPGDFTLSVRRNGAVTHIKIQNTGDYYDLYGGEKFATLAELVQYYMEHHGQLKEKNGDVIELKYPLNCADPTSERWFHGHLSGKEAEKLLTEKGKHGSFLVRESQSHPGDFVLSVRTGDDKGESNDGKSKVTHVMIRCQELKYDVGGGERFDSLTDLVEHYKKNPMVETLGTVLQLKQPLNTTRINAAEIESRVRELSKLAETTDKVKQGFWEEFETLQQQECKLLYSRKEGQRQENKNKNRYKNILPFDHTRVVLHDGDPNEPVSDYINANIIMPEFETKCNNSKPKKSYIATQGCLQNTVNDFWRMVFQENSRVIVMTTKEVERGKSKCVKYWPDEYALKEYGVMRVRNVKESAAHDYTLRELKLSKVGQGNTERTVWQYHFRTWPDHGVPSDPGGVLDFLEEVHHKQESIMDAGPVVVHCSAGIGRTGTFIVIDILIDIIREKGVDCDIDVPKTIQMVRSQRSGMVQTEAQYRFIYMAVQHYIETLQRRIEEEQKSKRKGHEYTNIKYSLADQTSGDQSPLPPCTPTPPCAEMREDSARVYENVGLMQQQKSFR
Method in brief: (§6)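 DC50 is the concentration degrading 50% of SHP2 relative to DMSO control. It was derived by fitting Western blot band densitometry (anti-SHP2, GAPDH reference) from cells exposed 24 h to 0.1–100 nM compound in 0.1% DMSO.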

[3] = system: MV-411 cell line; experiment: Inhibition of cell proliferation, MV-411 (CCK-8); settings: Homo sapiens, MV4-11, 120 h, MV411 cells, 5 days, read-out: Inhibition activity on the proliferation of different cell lines MV411 (IC50)
Description: • MV-411 cell line (COBIER, CBP-60522) • FBS (GEMINI, Cat. No. 900-108) • 0.01M PBS (Biosharp, Cat. No. 162262) • IMDM (Hyclone, Cat. No. SH30228.01) • Penicillin-Streptomycin (Gibco, Cat. No. 15140122) • DMSO (Sigma, Cat. No. D5879) • Cell counting kit-8 (Signalway Antibody, Cat. No. CP002) • Centrifuge Tube, 15 ml (Excell Bio, Cat. No. CS015-0001) • Cell Culture Dish, (WHB, Cat. No. CS016-0128) • 96-well cell culture cluster (Corning, Cat. No. 3599)
• (1) Cell culture medium: IMDM medium+10% FBS+1% Pen Strep; • (2) PBS buffer: PBS powder was dissolved in 2 L of ultrapure water and sterilized;
as §1, §2, §3, §4

[4] = system: MIA Paca-2; experiment: Inhibition of cell proliferation, MIA Paca-2 (CCK-8); settings: Homo sapiens, MIA Paca-2 cells, read-out: Inhibition activity on the proliferation of different cell lines MIA Paca-2 (IC50)
Description: as §1, §2, §3, §4, §5

[5] = biological target: T1, SHP2 protein; experiment: Degradation activity on SHP2 protein in NCI-H358 cells (Western blot, DC50); set-up: endogenous in cells; settings: read-out: Degradation activity for differenct cell lines NCI-H358 (DC50)
Method in brief: as §6

[6] = biological target: T1, SHP2 protein; experiment: Degradation activity on SHP2 protein in MV-411 cells (Western blot, DC50); set-up: endogenous in cells; settings: MV411 cells, 24 hours, read-out: Degradation activity for differenct cell lines MV411 (DC50)
Method in brief: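 Western blot of SHP2 (GAPDH loading control, 30 μg protein/lane) in lysates of MV-411 cells exposed 24 h to final compound concentrations of 100, 10, 3, 1, 0.3 and 0.1 nM (0.1% DMSO). Degradation relative to DMSO set at 100%; DC50 derived by curve fitting.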

[7] = system: NCI-H1975; experiment: Inhibition of cell proliferation, NCI-H1975 (CCK-8); settings: Homo sapiens, NCI-H1975 cells, read-out: Inhibition activity on the proliferation of different cell lines NCI-H1975 (IC50)
Description: as §1, §2, §3, §4, §5

[8] = system: NCI-H358; experiment: Inhibition of cell proliferation, NCI-H358 (CCK-8); settings: Homo sapiens, NCI-H358 cells, read-out: Inhibition activity on the proliferation of different cell lines NCI-H358 (IC50)
Description: as §1, §2, §3, §4, §5

Row | Structure (SMILES) | DC50 [2] [nM] | pIC50 [3] | pIC50 [4] | DC50 [5] [nM] | DC50 [6] [nM] | pIC50 [7] | pIC50 [8] | pIC50 [1]
1 | CC1(N)CCN(c2cnc(Sc3cccc(NC(=O)CCCCCCN4CC5(CCN(c6ncc(C(=O)NCc7ccc8c(c7)CN(C7CCC(=O)NC7=O)C8=O)cc6Cl)C5)C4)c3)cn2)CC1 (stereo not shown) [Compound 181] | < 100 |  | 5.30 to 6.00 | < 100 | < 100 |  |  | 
2 | CC1(N)CCN(c2cnc(Sc3cccc(NC(=O)CCCCCCCO[C@H]4CCN(Cc5ccc(COc6cccc7c6CN(C6CCC(=O)NC6=O)C7=O)cc5)C4)c3)cn2)CC1 (stereo partly shown) [Compound 96] |  |  | > 6.00 |  | < 100 |  | > 6.00 | 
3 | CC1(N)CCN(c2cnc(Sc3cccc(NC(=O)CCCCCCN4CC5(CCN(c6ccc(C(=O)NCc7ccc8c(c7)CN(C7CCC(=O)NC7=O)C8=O)nn6)C5)C4)c3)cn2)CC1 (stereo not shown) [Compound 110] | 100 to 1000 |  | < 5.30 | 100 to 1000 | < 100 |  | < 5.30 | 
4 | C[C@@H]1OCC2(CCN(c3cnc(Sc4cccc(NC(=O)c5ccc(N6CCC(N7CC=C(c8ccc(C(=O)NCc9ccc%10c(c9)CN(C9CCC(=O)NC9=O)C%10=O)nc8)CC7)CC6)c(F)c5)c4)cn3)CC2)[C@@H]1N (stereo partly shown) [Compound 412] | < 100 | 5.30 to 6.00 |  |  |  | > 6.00 |  | 5.30 to 6.00
5 | CC1(N)CCN(c2cnc(Sc3cccc(NC(=O)c4ccc(N5CCC(N6CC=C(c7ccc(C(=O)NCc8ccc9c(c8)CN(C8CCC(=O)NC8=O)C9=O)nc7)CC6)C5)cc4)c3)cn2)CC1 (stereo not shown) [Compound 403] | < 100 |  |  |  |  | 5.30 to 6.00 |  | 
6 | Cc1cc(N2CCC(N3CC=C(c4ccc(C(=O)NCc5ccc6c(c5)CN(C5CCC(=O)NC5=O)C6=O)nc4)CC3)CC2)ccc1C(=O)Nc1cccc(Sc2cnc(N3CCC(C)(N)CC3)cn2)c1 (stereo not shown) [Compound 421] | < 100 | > 6.00 |  | < 100 |  |  |  | 5.30 to 6.00
7 | CN(Cc1ccc2c(c1)CN(C1CCC(=O)NC1=O)C2=O)C(=O)c1ccc(N2CCN(CCCCCCCCC(=O)Nc3cccc(Sc4cnc(N5CCC(C)(N)CC5)cn4)c3)C(C(F)(F)F)C2)nn1 (stereo not shown) [Compound 175] |  |  | 5.30 to 6.00 |  | < 100 |  |  | 
8 | Cc1cc(C(=O)Nc2cccc(Sc3cnc(N4CCC(C)(N)CC4)cn3)c2)ccc1N1CCC(N2CC=C(c3ccc(C(=O)NCc4ccc5c(c4)CN(C4CCC(=O)NC4=O)C5=O)nc3)CC2)CC1 (stereo not shown) [Compound 422] | < 100 | 5.30 to 6.00 |  | < 100 |  |  |  | < 5.30
9 | O=C1CCC(N2Cc3cc(CNC(=O)c4ccc(N5CCC6(CN(CCC(=O)Nc7cccc(Sc8cnc(N9CCC%10(CCNC%10)CC9)cn8)c7)C6)C5)nn4)ccc3C2=O)C(=O)N1 (stereo not shown) [Compound 111] |  | > 6.00 | 5.30 to 6.00 |  | > 1000 |  | 5.30 to 6.00 | 
10 | CC1(N)CCN(c2cnc(Sc3cccc(NC(=O)c4ccc(N5CCC(N6CC=C(c7cnc(C(=O)NCc8ccc9c(c8)CN(C8CCC(=O)NC8=O)C9=O)c(F)c7)CC6)CC5)c(F)c4)c3)cn2)CC1 (stereo not shown) [Compound 414] | < 100 | < 5.30 |  |  |  |  |  | 5.30 to 6.00

Continued, in another order:

Row | DC50 [2] [nM] | pIC50 [3] | pIC50 [4] | DC50 [5] [nM] | DC50 [6] [nM] | pIC50 [7] | pIC50 [8] | Structure (SMILES) | pIC50 [1]
11 | > 1000 | > 6.00 |  |  |  |  |  | C[C@@H]1OCC2(CCN(c3cnc(Sc4cccc(NC(=O)c5ccc(N6CCC(N7CCN(c8ccc(C(=O)NCc9ccc%10c(c9)CN(C9CCC(=O)NC9=O)C%10=O)c(F)c8)CC7)CC6)cc5)c4)cn3)CC2)[C@@H]1N (stereo partly shown) [Compound 500] | 5.30 to 6.00
12 | < 100 |  |  |  |  | > 6.00 |  | C[C@@H]1OCC2(CCN(c3cnc(Sc4cccc(NC(=O)c5ccc(N6CCC(N7CC=C(c8ccc(C(=O)NCc9ccc%10c(c9)CN(C9CCC(=O)NC9=O)C%10=O)c(F)c8)CC7)CC6)c(F)c5)c4)cn3)CC2)[C@@H]1N (stereo partly shown) [Compound 482] | 
13 | < 100 | > 6.00 |  |  |  | 5.30 to 6.00 |  | C[C@@H]1OCC2(CCN(c3cnc(Sc4cccc(NC(=O)c5ccc(N6CCC(N7CCN(c8ccc(C(=O)NCc9ccc%10c(c9)CN(C9CCC(=O)NC9=O)C%10=O)c(F)c8)CC7)CC6)c(F)c5)c4)cn3)CC2)[C@@H]1N (stereo partly shown) [Compound 501, hydrochloride] | 5.30 to 6.00
14 | > 1000 | > 6.00 |  |  |  |  |  | C[C@@H]1OCC2(CCN(c3cnc(Sc4cccc(NC(=O)c5ccc(N6CCC(N7CCN(c8ccc(C(=O)NCc9ccc%10c(c9)CN(C9CCC(=O)NC9=O)C%10=O)cc8F)CC7)CC6)cc5)c4)cn3)CC2)[C@@H]1N (stereo partly shown) [Compound 514] | 5.30 to 6.00
15 | < 100 |  |  |  |  | > 6.00 |  | C[C@@H]1OCC2(CCN(c3cnc(Sc4cccc(NCc5ccc(N6CCC(N7CC=C(c8ccc(C(=O)NCc9ccc%10c(c9)CN(C9CCC(=O)NC9=O)C%10=O)nc8)CC7)CC6)c(F)c5)c4)cn3)CC2)[C@@H]1N (stereo partly shown) [Compound 485] | 
16 | < 100 | > 6.00 |  |  |  |  |  | C[C@@H]1OCC2(CCN(c3cnc(Sc4cccc(NC(=O)c5ccc(N6CCC(N7CC=C(c8ccc(C(=O)NCc9ccc%10c(c9)CN(C9CCC(=O)NC9=O)C%10=O)nn8)CC7)CC6)c(F)c5)c4)cn3)CC2)[C@@H]1N (stereo partly drawn) [Compound 519, N-{[2-(2,6-oxohexahydropyridine-3-yl)-1-oxo-2,3-dihydro-1H-isoindol-5-yl]methyl}-6-(1-{1-[2-fluoro-4-({[3-({5-[(3S,4S)-4-amino-3-methyl-8-aza-2-oxaspiro[4.5]decan-8-yl]pyrazin-2-yl}thio)phenyl]amino}carbonyl)phenyl]hexahydropyridine-4-yl}-1,2,3,6-tetrahydropyridin-4-yl)-1,2-diazacyclohexane-3-formamide hydrochloride] | 5.30 to 6.00
